The values that follow come from publication PMC6592895, “Unusual Flavones from Primula macrocalyx as Inhibitors of OAT1 and OAT3 and as Antifungal Agents against Candida rugosa” (Scientific Reports, 2019).

The term IC50 denotes the midpoint of a concentration-inhibition curve. What is called zone of inhibition is the extent of the growth-free halo in a diffusion test. As usually defined, the inhibition is the change of the read-out against control, counted positive when it falls. A lower inhibition goes with a weak effect.

Values after ≈ are worked out from the molar mass of the structure shown. Like-named read-outs stand apart in the source and are kept apart here.

For data set [1], the system named is OAT1. More on the design: method as in PMID 30248705. To be noted: previous study; cited from earlier work.
The test system of data set [2] is OAT3. The arrangement: method as in PMID 30248705. To be noted: previous study; cited from earlier work.
Data set [3] deals with Candida rugosa (ATCC 10571). Nature of the data set: Broth microdilution antifungal assay. The class given is cell-based. To be noted: YM broth, 25 °C, read-out: MICs C. rugosa. As to the method: Antifungal activity against C. rugosa (ATCC 10571) was measured as previously described using a broth microdilution method[36]–[38] with minor modifications. The assay was performed in sterile 96-well microtiter plates. Briefly, YM broth was prepared and autoclaved for 20 min at 121 °C, then allowed to cool to room temperature (25 °C). C. rugosa was dispersed in YM broth to an optical density of 1 UA at 600 nm (approximately 1 × 10^7 cfu/mL) using uninoculated broth as the blank. A 198 µL aliquot of the resulting fungal suspension was dispensed into each well of a 96-well plate. Stock solutions of the twelve compounds were prepared in DMSO at a concentration of 50 mM. The stock solutions were diluted to a range of final concentrations (500–0.14 µM) in YM broth such that the final DMSO concentration was no higher than 1%, v/v. A 2 µL aliquot of the resulting test samples was transferred to each well of the plate. Plates were incubated at 25 °C for 24 h prior to measurement of the optical density of each well at 600 nm. […] Amphotericin B was used as positive control.
For orientation: Dilution methods test growth across graded concentrations, often in twofold steps.

The subject of a further data set is Candida rugosa. Nature of the data set: Agar well diffusion antimicrobial assay. It is filed as cell-based. To be noted: Diutina rugosa, fraction at 1 mg/mL in DMSO, read-out: diameter zone of inhibition. In general terms: A growth-free zone around the sample is the usual read-out of agar diffusion tests.
Data set [4] relates to OAT1. The settings on record: cited from earlier work.
Data set [5] deals with T1, OAT1 (Homo sapiens, UniProt Q4U2R8).
T1 sequence (Q4U2R8 1-563): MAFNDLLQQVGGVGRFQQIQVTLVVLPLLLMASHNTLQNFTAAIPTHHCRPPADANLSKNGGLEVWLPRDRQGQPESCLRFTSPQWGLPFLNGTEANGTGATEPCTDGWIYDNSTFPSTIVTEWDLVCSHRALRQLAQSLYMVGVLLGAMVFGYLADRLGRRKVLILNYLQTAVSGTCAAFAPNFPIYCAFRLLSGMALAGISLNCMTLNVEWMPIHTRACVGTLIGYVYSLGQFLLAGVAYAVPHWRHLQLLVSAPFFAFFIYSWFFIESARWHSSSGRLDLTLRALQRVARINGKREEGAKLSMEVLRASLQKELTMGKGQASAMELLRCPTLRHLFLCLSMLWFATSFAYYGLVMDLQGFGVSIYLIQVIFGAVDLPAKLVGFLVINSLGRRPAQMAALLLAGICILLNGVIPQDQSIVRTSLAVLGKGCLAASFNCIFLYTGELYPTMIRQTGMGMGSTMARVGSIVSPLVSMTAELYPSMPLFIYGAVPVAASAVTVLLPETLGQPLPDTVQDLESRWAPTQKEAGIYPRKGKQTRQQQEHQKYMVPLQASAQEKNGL
Nature of the data set: 6-CF uptake assay in HEK-OAT1 cells. To be noted: for inhibition at 5 min, 50 µM: human, HEK293 cells stably overexpressing OAT1 (HEK-OAT1), pH 7.2, probe 6-CF (4 µM).
Experimental: (§1) The interactions of 12 flavones with the uptake of 6-CF in HEK-OAT1 and HEK-OAT3 cells were evaluated. This cell uptake assay was performed as previously described[14],[35]. A density of 5 × 10^4 cells were seeded per well in 96-well culture plates precoated with poly-D-lysine. […] Uptake was terminated by adding 100 µL ice-cold uptake buffer, and quickly washing the cells in each well three times with ice-cold phosphate-buffered saline (PBS). The cells were lysed with 100 µL of 20 mM Tris-HCl containing 0.2% TritonX-100. […] The protein content of the cell lysate was quantified using a BCA Protein Assay Kit. The intensity of fluorescence was standardized against total protein content, and measured in triplicate. The stock solutions of tested compounds were dissolved in DMSO with a final concentration of 50 mM and dilutions were made using uptake buffer.
(§2) For the uptake experiments, data were analyzed with a two-tailed unpaired Student’s t-test.

For data set [6], the target named is T2, OAT3 (Homo sapiens, UniProt Q8TCC7).
T2 sequence (Q8TCC7 1-542): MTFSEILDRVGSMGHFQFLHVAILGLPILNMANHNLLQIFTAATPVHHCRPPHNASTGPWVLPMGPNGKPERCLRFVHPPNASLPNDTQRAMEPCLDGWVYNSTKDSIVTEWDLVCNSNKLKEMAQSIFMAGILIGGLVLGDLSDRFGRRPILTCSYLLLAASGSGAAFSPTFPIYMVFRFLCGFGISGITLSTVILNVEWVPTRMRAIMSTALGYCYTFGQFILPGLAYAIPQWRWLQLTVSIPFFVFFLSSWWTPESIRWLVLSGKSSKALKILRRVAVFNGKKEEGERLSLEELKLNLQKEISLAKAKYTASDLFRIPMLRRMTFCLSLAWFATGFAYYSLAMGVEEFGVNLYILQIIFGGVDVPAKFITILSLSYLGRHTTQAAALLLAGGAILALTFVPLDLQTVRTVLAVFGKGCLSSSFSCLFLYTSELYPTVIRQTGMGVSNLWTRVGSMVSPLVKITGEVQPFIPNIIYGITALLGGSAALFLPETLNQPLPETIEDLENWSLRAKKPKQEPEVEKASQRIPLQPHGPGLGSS
Nature of the data set: 6-CF uptake assay in HEK-OAT3 cells.
Experimental: as §1, §2

Data set [7] concerns OAT1. To be noted: cited from earlier work. The source holds these as a separate data set.
Data set [8] has as its system OAT1. To be noted: read-out: IC50 OAT1; assay similar to that used in this study; cited from earlier work.
For data set [9], the system named is OAT3. The settings on record: cited from earlier work.
In data set [10] the test system is OAT3. The settings on record: read-out: IC50 OAT3; biflavonoids from Juniperus oblonga; cited from earlier work.
Data set [11] deals with Oat3. To be noted: rat, in vivo, po; cited from earlier work.
Setting [12] is: Diutina rugosa, ATCC10571, 24 h.

As to `COc1cc2c(=O)c(-c3ccccc3O)coc2c(OC)c1OC` [2′-hydroxy-6,7,8-trimethoxyisoflavone], the figures for the IC50 in the data set on OAT1 [1] and in the data set on OAT3 [2] were 9.1 µM and 8.7 µM, respectively.

Turning to `COc1c(O)cc2c(=O)c(-c3ccccc3O)coc2c1OC` [6,2′-dihydroxy-7,8-dimethoxyisoflavone], in the data set with OAT3 [2], the half-inhibitory concentration (IC50) is 17.9 µM.

For `COc1cc2c(=O)c(-c3ccccc3O)coc2c(OC)c1O` [7,2′-dihydroxy-6,8-dimethoxyisoflavone], the 50% inhibitory concentration (IC50) in the data set with OAT3 [2] is 5.6 µM.

As to `COc1ccc2c(=O)cc(-c3ccccc3)oc2c1` [7-methoxyflavone], the values for the IC50 in the data set on OAT1 [1] and with OAT3 [2] were 3.6 µM and 5.8 µM, respectively.

On to `C[C@@H]1[C@H](O)[C@@H](C)/C=C/C=C/C=C/C=C/C=C/C=C/C=C/[C@H](O[C@@H]2O[C@H](C)[C@@H](O)[C@H](N)[C@@H]2O)C[C@@H]2O[C@](O)(C[C@@H](O)C[C@@H](O)[C@H](O)CC[C@@H](O)C[C@@H](O)CC(=O)O[C@H]1C)C[C@H](O)[C@H]2C(=O)O` [Amphotericin B, reference compound], for which, in [3] (setting [12]), the MIC was found to be 0.4 µM (≈ 0.37 µg/mL). Further, the zone of inhibition at 1000 µg/mL in the data set on Candida rugosa was found to be 11 mm.

Take `O=c1cc(-c2ccc(O)cc2)oc2cc(O)cc(O)c12` [Apigenin]: the IC50 in the data set on OAT1 [4] is 737 nM.

In the case of `COc1cccc(-c2cc(=O)c3ccccc3o2)c1` [Compound 1, 3′-methoxyflavone], the MIC in [3] (setting [12]) was above 500 µM. In addition, the inhibition at 5 min, 50 µM against OAT1 [5] is below 70%; at OAT3 [6] (human, HEK293 cells stably overexpressing OAT3 (HEK-OAT3), pH 7.2, probe 6-CF (4 µM)) it was below 70%.

Take `O=c1cc(-c2ccccc2)oc2ccccc12` [Compound 2, flavone]: the MIC in data set [3] (setting [12]) came to 500 µM (≈ 111 µg/mL). For the same molecule, the IC50 amounted to 9.4 µM at OAT1 [5] and 4.6 µM against OAT3 [6].

As to `COc1ccccc1-c1cc(=O)c2ccccc2o1` [Compound 3, 2′-methoxyflavone], the MIC in [3] (setting [12]) is above 500 µM. Also, the IC50 is 2.9 µM at OAT1 [5] and 6.3 µM at OAT3 [6].

In the case of `COc1ccc(OC)c(-c2cc(=O)c3ccccc3o2)c1` [Compound 4, 2′,5′-dimethoxyflavone], in data set [3] (setting [12]), the MIC is above 500 µM. The IC50 at OAT1 [5] came to 32.9 µM; on OAT3 [6], 12.1 µM.

In the case of `COc1ccc(O)cc1-c1cc(=O)c2ccccc2o1` [Compound 5, 2′-methoxy-5′-hydroxyflavone], the MIC in [3] (setting [12]) was above 500 µM. In addition, the IC50 at OAT1 [5] turned out to be 26.9 µM; on OAT3 [6], 27.3 µM.

As for `COc1cc(-c2cc(=O)c3ccccc3o2)cc(O)c1OC` [Compound 6, 3′-hydroxy-4′,5′-dimethoxyflavone], the MIC in [3] (setting [12]) was above 500 µM. The half-maximal inhibitory concentration (IC50) was found to be 3.2 µM on OAT1 [5] and 5.1 µM against OAT3 [6].

For the molecule `COc1ccc(OC)c(-c2cc(=O)c3c(OC)c(OC)ccc3o2)c1OC` [Compound 8, 5,6,2′,3′,6′-pentamethoxyflavone], the MIC in data set [3] (setting [12]) was below 2 µM; in data set [3] (24 h) it was 1.2 µM (≈ 0.447 µg/mL). Moreover, the figures for the 50% inhibitory concentration (IC50) against OAT1 [5] and against OAT3 [6] were 10 µM and 7.4 µM, respectively.

Consider `O=c1cc(-c2cccc(O)c2)oc2ccccc12` [Compound 9, 3′-hydroxyflavone], for which the MIC in data set [3] (setting [12]) was above 500 µM. Besides, the figures for the IC50 against OAT1 [5] and against OAT3 [6] were 11.4 µM and 8 µM, respectively.

For the molecule `O=c1cc(-c2ccccc2O)oc2ccccc12` [Compound 10, 2′-hydroxyflavone], in data set [3] (setting [12]), the MIC was above 500 µM. At OAT1 [5], the inhibition at 5 min, 50 µM is below 70%. This molecule also showed an IC50 on OAT3 [6] of 18.8 µM.

Take `COc1cccc(OC)c1-c1cc(=O)c2c(OC)c(OC)cc(OC)c2o1` [Compound 11, 5,6,8,2′,6′-pentamethoxyflavone]: the MIC in [3] (setting [12]) was above 500 µM. At OAT1 [5], this molecule came in with an inhibition at 5 min, 50 µM below 70%. This molecule registered an IC50 at OAT3 [6] of 10.9 µM.

In the case of `COc1ccccc1-c1cc(=O)c2c(OC)c(OC)ccc2o1` [Compound 12, 5,6,2′-trimethoxyflavone], the MIC was below 2 µM in data set [3] (setting [12]) and 2.0 µM (≈ 0.625 µg/mL) in [3] (24 h). The IC50 came out at 9.6 µM on OAT1 [5] and 2.9 µM at OAT3 [6].

As to `O=c1c(O)c(-c2ccc(O)cc2O)oc2cc(O)cc(O)c12` [Morin], the IC50 with OAT1 [7] (read-out: IC50 OAT1, PAH uptake assay in LLC-PK1 cells) was below 300 nM.

For the molecule `COc1c(O)cc(O)c2c(=O)cc(-c3ccccc3)oc12` [Wogonin], the IC50 in the data set on OAT1 [8] is 5.4 µM; with OAT3 [9] (read-out: IC50 OAT3, assay similar to that used in this study), 1300 nM.

As to `O=c1cc(-c2ccc(O)c(-c3c(O)cc(O)c4c(=O)cc(-c5ccc(O)cc5)oc34)c2)oc2cc(O)cc(O)c12` [amentoflavone], in the data set on OAT3 [10], the IC50 was 2 µM. Further, the “effect on pharmacokinetic parameters of furosemide (substrate of Oat3)” value in the data set on Oat3 [11] was “markedly altered”.

Take `O=c1cc(-c2ccccc2)oc2cc(O)c(O)c(O)c12` [baicalein]: the IC50 in the data set on OAT3 [9] is 2400 nM.

As for `O=c1cc(-c2ccc(O)cc2)oc2c(-c3c(O)cc(O)c4c(=O)cc(-c5ccc(O)cc5)oc34)c(O)cc(O)c12` [cupressuflavone], in the data set on OAT3 [10], the concentration for half-maximal inhibition (IC50) is above 50 µM.

On to `O=c1cc(-c2ccc(O)c(O)c2)oc2cc(O)cc(O)c12` [luteolin], for which the IC50 with OAT1 [7] is 470 nM.

Take `COc1ccc(-c2cc(=O)c3c(O)cc(O)c(-c4cc(-c5cc(=O)c6c(O)cc(O)cc6o5)ccc4O)c3o2)cc1` [podocarpusflavone A]: in the data set on OAT3 [10], the concentration for half-maximal inhibition (IC50) is 3.8 µM.
